According to US8771973B2, “Methods for treating bleeding disorders using sulfated polysaccharides” (Baxter Healthcare S.A., priority 2004, dated 2014):

Assays:
Hem-A plasma = test: dPT assay, anti-coagulant activity of NASPs in Hem-A plasma; type: biochemical, human; conditions: for clotting time, dPT: Hem-A plasma without NASP 41.5 seconds; for concentration for 50% prolongation of clotting time, fold higher than heparin: dPT, Hem-A plasma
Procedure: (§1) The dPT assay used was a modified standard clinical PT assay (Nordfang et al. (1991) Thromb Haemost 66:464-467; Welsch et al. (1991) Thrombosis Research 64: 213-222). SIMPLASTIN EXCEL thromboplastin reagent (Organon Teknika) was reconstituted with the manufacturer's diluent and further diluted 1:100 in 0.9% saline. The thromboplastin reagent, 25 mM CaCl2, and plasma samples were pre-warmed to 37° C. before initiating the assay. 100 μl of thawed plasma was aliquoted into microcentrifuge tubes. […] 100 μl of the diluted thromboplastin reagent and 100 μl of 25 mM CaCl2 were added to fibrin cups (Fisher) prewarmed to 37° C. 100 μl of plasma (normal or hemophilic) containing the test agent or saline control was added to the fibrin cups containing the thromboplastin reagent and CaCl2 to initiate clotting. The time for plasma clotting was measured with a BBL FIBROSYSTEM fibrometer.
Test compounds were diluted to 100 μM, 10 μM, 2 μM and 200 nM. For each test compound, 12.5 μl of a diluted solution containing the test compound was added to 237.5 μl of Hem-A plasma and incubated at room temperature. 100 μl of plasma containing the test compound was removed for dPT assays of plasma clotting time as described in Example 2.

[1] = test system: Hem-A plasma containing 1.25% FACT plasma; test: aPTT assay, NASPs in 1.25% FACT diluted in Hem-A plasma; type: biochemical, human; conditions: for concentration producing approximately 50% prolongation in clotting time, fold higher than for heparin: APTT, Hem-A plasma
Procedure: Activated Partial Thromboplastin Time (aPTT) Assay The aPTT assay was performed as described previously with modifications (PDR Staff Physicians' Desk Reference. 2004, Anderson Lo, Barrowcliffe, T. W., Holmer, E., Johnson, E. A., Sims, G. E. C. Thromb. Res. 1976; 9:575-580). 25 mM CaCl2 and fibrin cups (Fisher) were pre-warmed to 37° C. 0.1 ml of thawed human plasma (normal or hemophilic) was added to warmed test tubes. 5 μl of saline (e.g. Sigma) or 5 μl of test agent (e.g., NASP) dissolved in saline was incubated with 95 μl of plasma for 30 minutes at room temperature. APTT reagent (e.g. Organon Teknika) was reconstituted in 3 ml distilled water and 0.1 ml of the reconstituted solution containing the APTT reagent was added to each test tube. 0.2 ml of plasma containing the test agent or saline control and aPTT reagent were transferred from test tubes to pre-warmed fibrin cups and incubated for 2-3 minutes. 0.1 ml of pre-warmed 25 mM CaCl2 was added to initiate clotting, and the time for plasma clotting was measured with a BBL FIBROSYSTEM fibrometer.
The effect of NASPs on the clotting time of plasma was determined as follows: 5 μl of a NASP was added to 95 μl of 1.25% FACT diluted in human Hem-A plasma and incubated at room temperature for 30 minutes. aPTT assays were performed to determine plasma clotting time as described in Example 1.

TFPI [2] = molecular target: T1, TFPI (Homo sapiens, UniProt P10646); test: dPT assay, inhibition of TFPI activity in Hem-B plasma, TFPI preincubated with NASP; type: biochemical; conditions: Hem-B + TFPI, plasma alone 46, + TFPI 101 seconds
T1 construct: purchased American Diagnostica (Stamford, Conn.)
T1 sequence (P10646 29-304): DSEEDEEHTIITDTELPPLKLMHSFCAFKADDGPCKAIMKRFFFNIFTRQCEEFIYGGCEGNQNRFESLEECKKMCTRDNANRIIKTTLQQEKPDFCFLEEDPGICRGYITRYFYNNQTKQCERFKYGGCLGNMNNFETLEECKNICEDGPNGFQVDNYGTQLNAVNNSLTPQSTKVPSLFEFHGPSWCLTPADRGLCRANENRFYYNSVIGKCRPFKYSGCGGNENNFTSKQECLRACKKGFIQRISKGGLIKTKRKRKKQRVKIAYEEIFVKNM
Procedure: as §1
Inhibition of TFPI activity by NASPs was assessed in dPT clotting assays with normal or hemophilic plasma and added recombinant TFPI. Diluted recombinant TFPI was preincubated with NASPs for 5 minutes at room temperature before plasma was added. After addition of plasma, the mixture was incubated for an additional 25 minutes followed by dPT initiation.
The acceleration of plasma clotting by the NASPs in the presence of TFPI was also tested in Hem-B and normal plasma.

TFPI [3] = molecular target: T1, TFPI; test: dPT assay, inhibition of TFPI activity in Hem-A plasma without preincubation; type: biochemical; conditions: no preincubation; for clotting time, dPT: Hem-A + TFPI, HemA + TFPI 183, alone 45 seconds
Procedure: as §1
Experiments were repeated without a preincubation of the sulfated polysaccharides with TFPI prior to exposure to plasma. To extend the stringency of the test for NASP inhibition of TFPI activity, TFPI was added to the plasma before the NASP was added.

[4] = test system: Factor VII-deficient plasma; test: dPT assay, Factor VII-deficient plasma in absence of exogenous TFPI; type: biochemical, human; conditions: FVII-deficient plasma, no NASP + 0.1 nM FVIIa 173 seconds
Procedure: as §1
Regulation of clotting in Factor VII-deficient plasma was also evaluated in dPT assays. […] Addition of FVIIa to approximately 0.1 nM restored the clotting time to about 150 seconds (data not shown). Such a variation in clotting time shown in the dPT assay mimics some forms of human factor VII-deficiency. Titration of fucoidan and PPS into FVII-deficient plasma accelerated clotting times.

| Substance | clotting time, dPT (Hem-A plasma; 10 nM) [s] | clotting time, dPT (Hem-A plasma; 100 nM) [s] | clotting time, dPT (Hem-A plasma; 500 nM) [s] | concentration for 50% prolongation of clotting time, fold higher than heparin (Hem-A plasma) | clotting time, aPTT ([1]; 0.8 nM) [s] | clotting time, aPTT ([1]; 4 nM) [s] | clotting time, aPTT ([1]; 20 nM) [s] | clotting time, aPTT ([1]; 100 nM) [s] | concentration producing approximately 50% prolongation in clotting time, fold higher than for heparin [1] [fold] | clotting time, dPT (TFPI [2]; 0.16 nM) [s] | clotting time, dPT (TFPI [2]; 0.8 nM) [s] | clotting time, dPT (TFPI [2]; 4 nM) [s] | clotting time, dPT (TFPI [2]; 20 nM) [s] | clotting time, dPT (TFPI [2]; 100 nM) [s] | clotting time, dPT (TFPI [2]; 500 nM) [s] | clotting time, dPT (TFPI [3]; 0.8 nM) [s] | clotting time, dPT (TFPI [3]; 4 nM) [s] | clotting time, dPT (TFPI [3]; 20 nM) [s] | clotting time, dPT (TFPI [3]; 100 nM) [s] | clotting time, dPT (TFPI [3]; 500 nM) [s] | other results |
| --- | --- | --- | --- | --- | --- | --- | --- | --- | --- | --- | --- | --- | --- | --- | --- | --- | --- | --- | --- | --- | --- |
| Fucoidan | 39 | 38 | 60 | approximately 10 fold | 70 | 71 | 75 | 119 | 10 | 108 | 95 | 80 | 54 | 50 | 60 | 210 | 78 | 59 | 54 | 90 | clotting time, aPTT ([1]; 0.16 nM): 71 s; concentration window for significant clotting acceleration (TFPI [3]; Hem A plasma + TFPI): greater than 100 fold; clotting time, dPT ([4]; 0.8 nM): 168 s; clotting time, dPT ([4]; 4 nM): 147 s; clotting time, dPT ([4]; 20 nM): 120 s; clotting time, dPT ([4]; 100 nM): 74 s; clotting time, dPT ([4]; 500 nM): 111 s |
| Pentosan Polysulphate Sodium [PPS] | 39 | 37 | 40 | ~100 fold | 70 | 71 | 72 | 80 | 100 | 106 | 90 | 82 | 65 | 52 | 56 | 192 | 156 | 81 | 76 | 73 | clotting time, dPT (Hem-A plasma; 5000 nM): 70 s; clotting time, aPTT ([1]; 500 nM): 113 s; clotting time, dPT ([4]; 0.8 nM): 198 s; clotting time, dPT ([4]; 4 nM): 181 s; clotting time, dPT ([4]; 20 nM): 159 s; clotting time, dPT ([4]; 100 nM): 142 s; clotting time, dPT ([4]; 500 nM): 113 s |
